We go through five compounds from ChEMBL document CHEMBL3739285, “Fluorescent sulfonamide carbonic anhydrase inhibitors incorporating 1,2,3-triazole moieties: Kinetic and X-ray crystallographic studies” (Bioorg Med Chem, 2016).

The target in series [1] is Carbonic anhydrase 1 (Homo sapiens, UniProt P00915). The series can be described thus: Inhibition of human carbonic anhydrase-1 preincubated for 15 mins by stopped flow CO2 dehydration method.
The target in series [2] is Carbonic anhydrase 2 (Homo sapiens, UniProt P00918). Briefly: Inhibition of human carbonic anhydrase-2 preincubated for 15 mins by stopped flow CO2 dehydration method.
In series [3] the target is Carbonic anhydrase 12 (Homo sapiens, UniProt O43570). Briefly: Inhibition of human carbonic anhydrase-12 preincubated for 15 mins by stopped flow CO2 dehydration method.
Series [4] has as its target Carbonic anhydrase 9 (Homo sapiens, UniProt Q16790).
Description: Inhibition of human carbonic anhydrase-9 preincubated for 15 mins by stopped flow CO2 dehydration method
For series [5], the species on record is Homo sapiens. Briefly: Selectivity ratio of Ki for human carbonic anhydrase-9 to Ki for human carbonic anhydrase-2.
In series [6] the target is Carbonic anhydrase 14 (Homo sapiens, UniProt Q9ULX7).
Description: Inhibition of human carbonic anhydrase-14 preincubated for 15 mins by stopped flow CO2 dehydration method
Series [7] is described as follows: Solubility of the compound in phosphate buffer at pH 7.4. The class given is physicochemical.

Converted amounts (≈) assume the structure as drawn.

Sequence of Carbonic anhydrase 12 (O43570 whole entry): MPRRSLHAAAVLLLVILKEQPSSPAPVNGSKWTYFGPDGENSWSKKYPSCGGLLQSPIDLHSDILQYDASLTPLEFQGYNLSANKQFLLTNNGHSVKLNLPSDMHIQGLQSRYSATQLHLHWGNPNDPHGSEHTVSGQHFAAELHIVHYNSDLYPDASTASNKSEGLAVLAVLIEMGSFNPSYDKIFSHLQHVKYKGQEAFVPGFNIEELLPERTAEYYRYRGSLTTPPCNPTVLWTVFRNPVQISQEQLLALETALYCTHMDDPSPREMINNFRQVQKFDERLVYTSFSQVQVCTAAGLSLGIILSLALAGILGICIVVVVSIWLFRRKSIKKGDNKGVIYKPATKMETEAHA
Sequence of Carbonic anhydrase 14 (Q9ULX7 whole entry): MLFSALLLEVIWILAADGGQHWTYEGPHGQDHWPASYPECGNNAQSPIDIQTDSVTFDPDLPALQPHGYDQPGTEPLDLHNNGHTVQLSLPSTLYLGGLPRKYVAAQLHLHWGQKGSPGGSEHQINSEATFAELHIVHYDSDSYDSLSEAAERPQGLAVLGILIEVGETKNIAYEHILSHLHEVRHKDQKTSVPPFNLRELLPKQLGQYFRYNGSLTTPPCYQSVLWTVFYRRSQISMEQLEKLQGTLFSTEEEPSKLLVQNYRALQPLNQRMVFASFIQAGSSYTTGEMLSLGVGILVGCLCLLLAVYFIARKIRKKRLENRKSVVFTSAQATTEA
Sequence of Carbonic anhydrase 1 (P00915 whole entry): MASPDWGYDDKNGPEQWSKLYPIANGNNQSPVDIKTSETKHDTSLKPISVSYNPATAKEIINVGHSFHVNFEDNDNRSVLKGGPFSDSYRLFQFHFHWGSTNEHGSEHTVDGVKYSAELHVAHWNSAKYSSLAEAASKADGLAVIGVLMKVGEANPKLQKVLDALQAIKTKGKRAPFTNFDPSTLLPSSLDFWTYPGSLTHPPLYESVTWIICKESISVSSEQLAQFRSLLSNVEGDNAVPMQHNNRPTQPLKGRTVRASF

In general, Ki refers to a dissociation constant, usually derived from enzyme kinetics or from competition with a known ligand. Higher therefore signals weaker binding. Consider `NS(=O)(=O)c1cccc(-n2cc(CNC(=S)Nc3ccc(-c4c5ccc(=O)cc-5oc5cc(O)ccc45)c(C(=O)O)c3)nn2)c1`, for which the Ki in series [1] came to 7630 nM; in series [2], 127 nM; in series [3], 20.5 nM; in series [4], 36.9 nM.

As for `CN(C)c1ccc2c(-c3ccc(NC(=S)NCc4cn(-c5cccc(S(N)(=O)=O)c5)nn4)cc3C(=O)O)c3ccc(=[N+](C)C)cc-3oc2c1`, the Ki in series [1] turned out to be 6420 nM; in series [2], 88 nM; in series [3] it was 10.7 nM; in series [4], 24.3 nM; in series [6], 31.4 nM. For the same compound, the Ratio Ki in series [5] worked out at 3.62.

Turning to `NS(=O)(=O)c1ccc(CCNC(=S)Nc2ccc(-c3c4ccc(=O)cc-4oc4cc(O)ccc34)c(C(=O)O)c2)cc1`, the Ki in series [6] is 33 nM.

In general, solubility refers to the concentration that dissolves in the medium under given conditions. A high value points to a readily soluble substance. For the compound `NS(=O)(=O)c1ccc(-n2cc(CNC(=S)Nc3ccc(-c4c5ccc(=O)cc-5oc5cc(O)ccc45)c(C(=O)O)c3)nn2)cc1`, the solubility in series [7] was found to be 3800 µg/mL (≈ 5.91 mM). Further, the Ki in series [1] stood at 2560 nM; in series [2] it was 36 nM; in series [3], 4.1 nM; in series [4] it was 8.1 nM.

In turn, `NS(=O)(=O)c1ccc(CNC(=S)Nc2ccc(-c3c4ccc(=O)cc-4oc4cc(O)ccc34)c(C(=O)O)c2)cc1` came in with a solubility in series [7] of 1200 µg/mL (≈ 2.08 mM). Also, the Ki in series [3] was found to be 7 nM; in series [6], 41 nM.
